{"source": "patent US20110207819A1", "about": "“Fat Emulsion for Artificially Feeding Seriously Ill Intensive Care Patients” (B. BRAUN MELSUNGEN AG, priority 2008, published 2011)", "origin": "cited, not measured here", "tested_on": "CIP/CIM", "details": "intensified insulin therapy; intensive care patients", "data": [{"substance": "insulin", "values": [{"measurement": "decrease of the incidence of CIP/CIM", "value": 44, "unit": "%"}]}]}
